Target: T1, LuxS (Streptococcus suis, UniProt B2CMA5)
T1 construct: recombinant from pET28-luxS in E. coli BL21(DE3), HisTrap purified
Test: Ellman assay of homocysteine, […] nm, Michaelis-Menten fit
Assay type: biochemical
Conditions: SRH as substrate, 6.25-25 ug/ml PF, pH 7.2, 37 °C; competitive; partial inhibition

T1 sequence (B2CMA5 entry or part of it): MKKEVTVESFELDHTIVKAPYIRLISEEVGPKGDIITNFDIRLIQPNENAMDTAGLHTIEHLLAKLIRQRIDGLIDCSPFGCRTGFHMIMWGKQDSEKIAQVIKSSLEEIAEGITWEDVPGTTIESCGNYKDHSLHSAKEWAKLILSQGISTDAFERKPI

Structure (SMILES): C[C@@]12C[C@@]3(O)O[C@@H](O1)[C@]1(COC(=O)c4ccccc4)[C@H]3C[C@@]12O[C@@H]1O[C@H](CO)[C@@H](O)[C@H](O)[C@H]1O [PF, paeoniflorin]
- Ellman assay of homocysteine, 412 nm, Michaelis-Menten fit: the Km value of LuxS gradually increases, although the maximum reaction rate does not change

Source: publication PMC8923065, “Paeoniflorin reduce luxS/AI-2 system-controlled biofilm formation and virulence in Streptococcus suis” (Virulence, 2021)
